Legend:
[1] = Concentration required for 50% Inhibition of responses at cloned NR1A/2AB N-methyl-D-aspartate (NMDA) expressed in Xenopus oocytes
[2] = as above; remark: listed apart in the source

IC50 [1] [µM] | IC50 [2] [µM] | SMILES
6.1 | – | C(#Cc1ccc2cc[nH]c2c1)CCN1CCC(Cc2ccccc2)CC1 [6-[4-(4-Benzyl-piperidin-1-yl)-but-1-ynyl]-1H-indole]
– | 0.1 | Oc1ccc(C#CCN2CCC(Cc3ccccc3)CC2)cc1 [4-[3-(4-Benzyl-piperidin-1-yl)-prop-1-ynyl]-phenol]
